The record followed here is US20230125075A1, “Composition Containing Paper Mulberry Extracts” (LG Household & Health Care Ltd., priority 2020, published 2023).

Common to all, as to format: cell-based
The subject of one assay is HepG2 cells. In words: Cholesterol synthesis in HepG2 cells ([14C] acetate incorporation). The conditions noted are these: for IC50: positive controls, HepG2 cells. Here is the method: To confirm the lipid-cholesterol improvement effect of the plant extracts, an appropriate number of HepG2 cells was seeded and cultured using a IMEM culture medium (containing 10% of FCS, 4.5 g/L of glucose, 4 mM glutamine, 10 μg/ml of insulin, 50 μg/ml of penicillin, 50 μg/ml of streptomycin, and 1% of non-essential amino acids). At this time, the culture medium was replaced every 2 days, and the cells were used for the experiment on the 12th day after seeding.
1 ml of a labeled acetate solution ([^14C] sodium acetate) was added to the cells, and the cells were incubated in a CO2 incubator. After 1 hour of incubation, the culture medium was discarded, the cells were washed with ice-cold PBS, 2 M NaOH was added to detach the cells, and the cells were incubated at 95° C. for 1 hour to induce saponification of lipids. Then, [^3H] cholesterol (about 20,000 dpm/sample) was added as a recovery marker, and lipids were extracted with a chloroform-methanol (2:1 (v/v)) solution. Then, after separating lipides through thin layer chromatohrapy (TLC), a band corresponding to free cholesterol was scraped and placed in a scintillation vial for measurement. The results for the above experiment were expressed as the amount of acetate incorporated per protein (acetate (nmole) incorporated/protein (mg)).
In this experimental example, it was confirmed whether the plant extracts inhibit cholesterol synthesis. As a result of the experiment, the amount of cholesterol was quantified. A decrease in cholesterol level means that a cholesterol improvement effect is obtained.
The effect of the test substance on the intracellular cholesterol content was expressed as a relative ratio when the control group (treated with dimethyl sulfoxide (DMSO) only) was 100% or was expressed as the amount incorporated acetate ([^14C]-acetate (nmole) incorporated/4 h/well). As the measured value increases, the amount of synthesized cholesterol increases. That is, a decrease in cholesterol synthesis indicates improvement in cholesterol.

The test system of the next assay is U266 cells. Briefly: IgE secretion measurement, ELISA. Here is the method:
To confirm the anti-allergic effect of the plant extracts, the secretion amount of immunoglobulin E was measured. First, U266 cells were treated with a test substance while culturing the U266 cells in an RPMI1640 culture medium containing 10% FBS for 3 days. After 3 days of treatment with the test substance, the cell culture medium was harvested. IgE capture antibody was added to the plate and left for 1 day. The plate was blocked with 2% BSA. The collected culture medium was added to the plate and mixed by shaking. IgE detection antibody was added to the plate and mixed by shaking. Streptavidin-HRP was added to the plate, and after blocking light, the mixture was shaken. A substrate was added to the plate, and after blocking light, the mixture was mixed by shaking until the color of the mixture changed to blue. After confirming that the color had changed, a 2 N sulfuric acid solution was added to the plate and mixed by shaking until the color changed to yellow. After measuring the absorbance at 450 nm and 570 nm, results were analyzed by subtracting the absorbance at 570 nm from the absorbance at 450 nm. At this time, as a positive control, 1 μM dexamethasone was used, and as a result, an inhibitory effect of 32% was observed. As a result of treatment with 0.1 μM hydrocortisone, an inhibitory effect of 35% was observed.
As a result of the experiment, the amount of IgE was quantified. As the level of IgE decreases, the anti-allergic effect increases.
(In an ELISA, binding on a coated surface is turned into a signal by an enzyme label.)

The test system of the next assay is 3T3-L1 fibroblasts. In words: Glycerol content in culture medium of 3T3-L1 fibroblasts (lipolysis). Particulars: positive control. Here is the method:
To confirm the anti-obesity effect of the plant extracts, the content of glycerol in the culture medium of 3T3-L1 fibroblasts was measured.
First, 3T3-L1 fibroblasts were cultured using a DMEM culture medium (proliferation culture medium) containing 10% bovine serum to an appropriate cell number on a plate. Then, using a DMEM culture medium (differentiation culture medium) containing 10% FBS, the cells were cultured until the plate was filled with the cells, and then were further cultured for 2 to 3 days. The existing culture medium was replaced with a culture medium to induce cell differentiation, which contains insulin (5 μg/mL), dexamethasone (0.25 μM), and 3-isobutyl-1-methylxanthine (0.5 mM), and was followed by incubation for 2 to 3 days. Afterwards, the culture medium was replaced with a medium containing only insulin and the cells were incubated for 2 to 3 days, and then the culture medium was replaced again with a DMEM culture medium containing 10% FBS and the cells were again incubated for 6 to 8 days (incubated until a point at which fat accumulation is observed in the cells). The anti-obesity substance was added before or after differentiation induction according to the purpose of the experiment. The cell culture medium was centrifuged at 10,000 rpm for 10 minutes, and the supernatant was obtained using a Pasteur pipette. The obtained supernatant was transferred to a plate and heated at 65° C. for 8 min to inactivate enzymes released from the cells. Next, a glycerol probe was dissolved in 220 μl of DMSO, and a glycerol enzyme mixture (Cayman Chemical, USA; Item No. 10010962) was dissolved in an assay buffer. These solutions were shielded from light and stored at −20° C. until experiment was performed. A 1 mM glycerol standard solution was prepared by diluting 10 μl of a glycerol standard solution with 990 μl of an analysis buffer. Then, the 1 mM glycerol standard solution was thoroughly mixed, 0, 2, 4, 6, 8, and 10 μl of the 1 Mm glycerol standard solution were respectively added to each well, and the analysis buffer was added to the each well to adjust the total volume to 50 μl. 50 μl of the sample (culture medium in which enzymes are inactivated) was added to each well. A reaction mixture containing 46 μl of the analysis buffer, 2 μl of the glycerol probe, and 2 μl of the glycerol enzyme mixture was prepared. 50 μl of the reaction mixture was added to each well containing the standard solution and the sample and was thoroughly mixed. Then, each well was shielded from light and left at room temperature for 30 minutes. Then, absorbance was measured at 570 nm.
As a result of the experiment, the amount of glycerol was quantified. Glycerol is a by-product of lipolysis. Accordingly, as the level of glycerol increases, an anti-obesity effect increases.
When lipolysis is enhanced by the test substance, the amount of triglycerides accumulated in adipocytes decreases and the amount of glycerol released increases. Accordingly, an increase in the amount of released glycerol means an increase in decomposition of triglycerides. Through this experiment, it can be confirmed that the test substance has an anti-obesity effect.

The subject of the next assay is C2C12 cells. In words: Glucose uptake measurement (2-NBDG method, FACS). Particulars: positive control. Here is the method: To confirm the blood glucose control effect of the plant extracts, the glucose uptake capacity of cells treated with the plant extracts was measured. First, C2C12 cells were seeded on a 96-well culture plate at a cell density of 1×10^4 cells/well. When a state of subconfluence was reached, which is within 24 hours, the experiment was started.
When saturated, the culture medium was removed, and 100 μl of a fresh medium containing 10 μM 2-NBDG or 100 μl of a fresh medium not containing 10 μM 2-NBDG (control) was added to each well. At this time, a test substance to be evaluated was included in the culture medium. That is, the cells were treated with the test substance by changing the culture medium. After treatment for 1 hour, wells were washed 2 times with pre-cold PBS. Then, cells in each well were collected and resuspended in 200 μl of a pre-cold medium, and the nuclei of the cells were stained with 1 μg/mL of propidium iodine (PI).
Measurement was performed with FACS for about 20 seconds. Event results of about 2,000 single cells were collected, and statistical analysis was performed on the event results.
In this experiment, it was determined whether the plant extracts promote intracellular glucose uptake. As a result of the experiment, the amount of glucose uptake into cells was quantified. That is, an increase in glucose uptake into cells means that the blood glucose control effect is improved.
As the value of measured fluorescence intensity increases, the glucose absorption rate increases. An increase in glucose absorption indicates a decrease in blood glucose levels.

A further assay concerns HUVEC cells. Briefly: Recovery of reduction in nitric oxide induced by oxLDL (Griess reagent). Particulars: positive control. Here is the method: To confirm the blood circulation improvement effect of the plant extracts, recovery of reduction in nitric oxide induced by oxidized low density lipoprotein (oxLDL) was measured. First, HUVEC cells were suspended in a Ham's F-12K (Kaighn's modification) culture medium, and the suspended cells were aliquoted into a culture plate. Then, plant extracts (samples) diluted at various concentrations were added to the culture plate containing the cells. At this time, […]. The sample-treated cells were placed in a 5% CO2 incubator set at 37° C. and cultured for 24 to 48 hours, and then the supernatant was taken and used as an analysis sample.
To analyze nitric oxide, a Griess reagent was prepared by mixing equal amounts of component A and component B. Then, 250 μl of the sample (culture medium) and 50 μl of the Griess reagent were added to a plate and mixed thoroughly. Next, to prepare a sodium nitrite solution, a nitrite standard solution was diluted with distilled water to a concentration between […] (reference sample). Under light-blocked conditions, a mixture of the sample and the Griess reagent was incubated at room temperature for 30 minutes. Thereafter, the absorbance (OD) of the nitrite-containing sample with respect to the reference sample was measured at 548 nm.
In this experiment, it was confirmed whether the level of nitric oxide decreased by oxLDL was recovered by the plant extracts. At this time, as a result of the experiment, the amount of nitric oxide was quantified. Nitric oxide plays a role in dilating blood vessels.

Where “and” joins values, the source holds several entries; their conditions need not be identical. Identical values can stand only once.

Regarding `CC(C)c1c(C(=O)Nc2ccccc2)c(-c2ccccc2)c(-c2ccc(F)cc2)n1CC[C@@H](O)C[C@@H](O)CC(=O)O` [Atorvastatin], the activity at 0.0704 µM in the assay on HepG2 cells (Homo sapiens, HepG2, positive control, 70.4 nM, read-out: Lipid-cholesterol synthesis (% of control)) turned out to be 50%. For the same molecule, in the assay on HepG2 cells (Homo sapiens), the midpoint of inhibition, the IC50, lay at 70.4 nM. Further, the Lipid-cholesterol synthesis with HepG2 cells (positive control, 70.4 nM) is reported as 50.00 % of control; in the assay with HepG2 cells (positive control, Atorvastatin 70.4 nM), 50.00 % of control. Besides, the “Lipid-cholesterol synthesis (% of control)” value with HepG2 cells (positive control, 70.4 nM) is on record as 50.00 (Atorvastatin % of control; with HepG2 cells (positive control, 70.4 nM, 0.0704 µM), 50.00 (Atorvastatin % of control.

Take `C[C@@H]1C[C@H]2[C@@H]3CCC4=CC(=O)C=C[C@]4(C)[C@@]3(F)[C@@H](O)C[C@]2(C)[C@@]1(O)C(=O)CO` [Dexamethasone]: the activity at 1 µM with U266 cells (Homo sapiens, U-266, positive control, 1 uM, read-out: Anti-allergy-IgE secretion (% of control)) was found to be 67.3%. Further, the inhibition at 1 µM in the assay with U266 cells (Homo sapiens, U-266, positive control, 1 μM, read-out: inhibitory effect on IgE secretion) was determined as 32%. Also, in the assay on U266 cells (positive control, 1 uM), the Anti-allergy-IgE secretion was 67.27 % of control and the “Anti-allergy-IgE secretion (% of control)” value was 67.27 (Dexamethasone % of control. The Anti-allergy-IgE secretion in the assay on U266 cells (positive control, Dexamethasone 1 uM) was 67.27 % of control.

For the molecule `CC(C)NCC(O)c1ccc(O)c(O)c1` (centres unmarked) [Isoproterenol], the activity at 10 µM in the assay with 3T3-L1 fibroblasts (Mus musculus, 3T3-L1, 10 μM, read-out: Anti-obesity-Glycerol Conc. (% of control)) was 872%. Besides, the “Anti-obesity-Glycerol Conc.” value in the assay with 3T3-L1 fibroblasts (10 pM), in the assay on 3T3-L1 fibroblasts (10 μM) and with 3T3-L1 fibroblasts (Isoproterenol 10 μM) was 872.36 % of control throughout. Moreover, the “Anti-obesity-Glycerol Conc. (% of control)” value in the assay on 3T3-L1 fibroblasts (10 μM) was 872.36 (Isoproterenol % of control.

With `CN(C)C(=N)N=C(N)N` [Metformin], in the assay with C2C12 cells (Mus musculus, C2C12, 1 mM, read-out: Blood glucose-Glucose absorption (% of control)), the activity at 1000 µM stood at 184%. Also, in the assay with C2C12 cells (1 mM), the “Blood glucose-Glucose absorption” value is recorded as 183.77 % of control, the “Blood glucose-Glucose absorption (% of control)” value was 183.77 (Metformin % of control and the “increase effect on glucose uptake” value is recorded as 180%. In the assay with C2C12 cells (Metformin 1 mM), the “Blood glucose-Glucose absorption” value is reported as 183.77 % of control.

For the molecule `CC(C)c1nc(N(C)S(C)(=O)=O)nc(-c2ccc(F)cc2)c1/C=C/[C@@H](O)C[C@@H](O)CC(=O)O` [Rosuvastatin], in the assay on HUVEC cells (0.1 μM), the “recovery of nitric oxide reduced by oxLDL” value stood at 100%. In the assay with HUVEC cells (0.05 ppm), the “Blood circulation-NO Conc.” value is 98.29 % of control; the “Blood circulation-NO Conc. (% of control)” value was 98.29 % of control and 98.29 (Rosuvastatin % of control. Besides, in the assay with HUVEC cells (Rosuvastatin 0.05 ppm), the “Blood circulation-NO Conc.” value is 98.29 % of control and the “Blood circulation-NO Conc. (% of control)” value was 98.29 % of control.

As for `C[C@]12CCC(=O)C=C1CC[C@@H]1[C@@H]2[C@@H](O)C[C@@]2(C)[C@H]1CC[C@]2(O)C(=O)CO` [hydrocortisone], in the assay with U266 cells (Homo sapiens, U-266, 0.1 μM, read-out: inhibitory effect on IgE secretion), the inhibition at 0.1 µM was found to be 35%.

Take `CCCCCCCCCCC[C@@H](C[C@@H]1OC(=O)[C@H]1CCCCCC)OC(=O)[C@H](CC(C)C)NC=O` [orlistat]: the “increase of glycerol compared to the negative control group” value with 3T3-L1 fibroblasts (0.5 ppm) is given as 160%.

As for `CCC(C)(C)C(=O)O[C@H]1C[C@@H](C)C=C2C=C[C@H](C)[C@H](CC[C@@H]3C[C@@H](O)CC(=O)O3)[C@H]21` [simvastatin], the IC50 (as a rule, the concentration at which inhibition is half-maximal) in the assay on HepG2 cells (Homo sapiens) turned out to be 31.8 nM.
